≈ marks a conversion by molar mass, not a printed value. Like-named read-outs stand apart in the source and are kept apart here.
Columns and labels:
Escherichia coli T-5 = experiment: Antibacterial spectrum, MIC by agar dilution method; assay type: cell-based
Text: (§1) XK-62-2, 1-N-[L-(-)-α-hydroxy-γ-aminobutyryl] XK-62-2, Compounds (I-1), (I-2), (II-1) and (II-2) against various Gram-negative and Gram-positive bacteria determined by agar dilution method at pH 7.2.

[1] = tested on: Klebsiella pneumoniae No. 8045; experiment: as above; assay type: cell-based; settings: pH 7.2, read-out: Minimum Inhibitory Concentration
Text: as §1

Proteus morganii KY 4298 = experiment: as above; assay type: cell-based; settings: Morganella morganii
Text: as §1

Proteus rettgeri KY 4288 = experiment: as above; assay type: cell-based; settings: Providencia rettgeri, KY4288, pH 7.2, read-out: Minimum Inhibitory Concentration
Text: as §1

[2] = tested on: Pseudomonas aeruginosa BMH 10; experiment: as above; assay type: cell-based; settings: BMH10, pH 7.2, read-out: Minimum Inhibitory Concentration
Text: as §1

[3] = tested on: Pseudomonas aeruginosa BMH 1; experiment: as above; assay type: cell-based; settings: BMH1, pH 7.2, read-out: Minimum Inhibitory Concentration
Text: as §1

[4] = tested on: Pseudomonas aeruginosa NC-5; experiment: as above; assay type: cell-based
Text: as §1

[5] = tested on: Shigella sonnei ATCC 9290; experiment: as above; assay type: cell-based; settings: ATCC9290, pH 7.2, read-out: Minimum Inhibitory Concentration
Text: as §1

[6] = tested on: Staphylococcus aureus 209 P; experiment: as above; assay type: cell-based; settings: pH 7.2, read-out: Minimum Inhibitory Concentration
Text: as §1

[7] = tested on: Staphylococcus aureus Smith; experiment: as above; assay type: cell-based; settings: pH 7.2, read-out: Minimum Inhibitory Concentration
Text: as §1

[8] = tested on: Streptococcus faecalis ATCC 10541; experiment: as above; assay type: cell-based; settings: Enterococcus faecalis, ATCC10541, pH 7.2, read-out: Minimum Inhibitory Concentration
Text: as §1

[9] = Acute toxicity (LD50) in mice; settings: mouse, in vivo, route not stated
Text: XK-62-2, Compounds (I-2), (II-1) and (II-2) in mice.

[10] = T5, agar dilution, pH 7.2, read-out: Minimum Inhibitory Concentration
[11] = KY4298, agar dilution, pH 7.2, read-out: Minimum Inhibitory Concentration
[12] = NC5, agar dilution, pH 7.2, read-out: Minimum Inhibitory Concentration
[13] = NC5, pH 7.2, read-out: Minimum Inhibitory Concentration

In the case of CNCC1CCC(N)C(OC2C(N)CC(NC(=O)C(O)CN)C(OC3OCC(C)(O)C(NC)C3O)C2O)O1 (racemic) [1-N-(DL-α-hydroxy-β-aminopropionyl) XK-62-2, reference compound], the MIC (Escherichia coli T-5; [10]) is reported as 0.78 µg/mL (≈ 1.42 µM), the MIC [1] is reported as 0.78 µg/mL (≈ 1.42 µM) and the MIC (Proteus morganii KY 4298; [11]) is reported as 0.78 µg/mL (≈ 1.42 µM). The MIC (Proteus rettgeri KY 4288) was 1.56 µg/mL (≈ 2.83 µM), the MIC [2] was 0.4 µg/mL (≈ 0.726 µM) and the MIC [3] was 1.56 µg/mL (≈ 2.83 µM). It also gave an MIC [4, 12] of 3.12 µg/mL (≈ 5.67 µM), an MIC [5] of 0.78 µg/mL (≈ 1.42 µM) and an MIC [6] of 0.4 µg/mL (≈ 0.726 µM). For the same molecule, the MIC [7] was 0.2 µg/mL (≈ 0.363 µM), the MIC [8] was 12.5 µg/mL (≈ 22.7 µM) and the LD50 [9] was 185 mg/kg.
With CC1(O)COC(OC2C(NC(=O)C(O)CN)CC(N)C(OC3OC(CN)CCC3N)C2O)C(O)C1N (racemic) [Compound I-1, 3"-N, 6'-N-didemethyl-1-N-(DL-α-hydroxy-β-aminopropionyl) XK-62-2] the MIC (Escherichia coli T-5; [10]) was 1.56 µg/mL (≈ 2.99 µM), the MIC [1] was 0.4 µg/mL (≈ 0.765 µM) and the MIC (Proteus morganii KY 4298; [11]) was 1.56 µg/mL (≈ 2.99 µM). For the same molecule, the MIC (Proteus rettgeri KY 4288) was 0.78 µg/mL (≈ 1.49 µM), the MIC [2] was 0.4 µg/mL (≈ 0.765 µM) and the MIC [3] was 0.78 µg/mL (≈ 1.49 µM). The MIC [4, 12] was 0.78 µg/mL (≈ 1.49 µM), the MIC [5] was 3.12 µg/mL (≈ 5.97 µM) and the MIC [6] was 0.2 µg/mL (≈ 0.383 µM). The MIC [7] was 0.2 µg/mL (≈ 0.383 µM) and the MIC [8] was 12.5 µg/mL (≈ 23.9 µM).
In the case of CNCC1CCC(N)C(OC2C(N)CC(NC(=O)C(O)CN)C(OC3OCC(C)(O)C(N)C3O)C2O)O1 (racemic) [II-1, 3"-N-demethyl-1-N-(DL-α-hydroxy-β-aminopropionyl) XK-62-2], the MIC (Escherichia coli T-5; [10]) is reported as 1.56 µg/mL (≈ 2.91 µM), the MIC [1] is reported as 0.78 µg/mL (≈ 1.45 µM) and the MIC (Proteus morganii KY 4298; KY4298, pH 7.2, read-out: Minimum Inhibitory Concentration) is reported as 3.12 µg/mL (≈ 5.81 µM). For the same molecule, the MIC (Proteus rettgeri KY 4288) was 1.56 µg/mL (≈ 2.91 µM), the MIC [2] was 0.4 µg/mL (≈ 0.745 µM) and the MIC [3] was 1.56 µg/mL (≈ 2.91 µM). It also gave an MIC [4, 13] of 3.12 µg/mL (≈ 5.81 µM), an MIC [5] of 3.12 µg/mL (≈ 5.81 µM) and an MIC [6] of 0.4 µg/mL (≈ 0.745 µM). For the same molecule, the MIC [7] was 0.4 µg/mL (≈ 0.745 µM), the MIC [8] was 25 µg/mL (≈ 46.6 µM) and the LD50 [9] was 175 mg/kg.
CNCC1CCC(N)C(OC2C(N)CC(NC(=O)C(O)CCN)C(OC3OCC(C)(O)C(NC)C3O)C2O)O1 (single isomer, unassigned) [1-N-[L-(-)-α-hydroxy-γ-aminobutyryl] XK-62-2, reference compound] gave an MIC (Escherichia coli T-5; [10]) of 0.4 µg/mL (≈ 0.708 µM), an MIC [1] of 0.2 µg/mL (≈ 0.354 µM) and an MIC (Proteus morganii KY 4298; [11]) of 0.78 µg/mL (≈ 1.38 µM). For the same molecule, the MIC (Proteus rettgeri KY 4288) was 0.78 µg/mL (≈ 1.38 µM), the MIC [2] was 0.4 µg/mL (≈ 0.708 µM) and the MIC [3] was 0.78 µg/mL (≈ 1.38 µM). It also gave an MIC [4, 12] of 3.12 µg/mL (≈ 5.53 µM), an MIC [5] of 0.78 µg/mL (≈ 1.38 µM) and an MIC [6] of 0.4 µg/mL (≈ 0.708 µM). The MIC [7] was 0.1 µg/mL (≈ 0.177 µM), the MIC [8] was 6.25 µg/mL (≈ 11.1 µM) and the LD50 [9] was 180 mg/kg.
CC1(O)COC(OC2C(NC(=O)C(O)CCN)CC(N)C(OC3OC(CN)CCC3N)C2O)C(O)C1N (single isomer, unassigned) [Compound I-2, 3"-N, 6'-N-didemethyl-1-N-[L-(-)-α-hydroxy-γ-aminobutyryl] XK-62-2] gave an MIC (Escherichia coli T-5; T5, pH 7.2, read-out: Minimum Inhibitory Concentration) of 1.56 µg/mL (≈ 2.91 µM), an MIC [1] of 0.78 µg/mL (≈ 1.45 µM) and an MIC (Proteus morganii KY 4298; [11]) of 0.78 µg/mL (≈ 1.45 µM). The MIC (Proteus rettgeri KY 4288) was 0.78 µg/mL (≈ 1.45 µM), the MIC [2] was 0.4 µg/mL (≈ 0.745 µM) and the MIC [3] was 0.78 µg/mL (≈ 1.45 µM). For the same molecule, the MIC [4, 13] was 1.56 µg/mL (≈ 2.91 µM), the MIC [5] was 1.56 µg/mL (≈ 2.91 µM) and the MIC [6] was 0.2 µg/mL (≈ 0.373 µM). It also gave an MIC [7] of 0.2 µg/mL (≈ 0.373 µM), an MIC [8] of 12.5 µg/mL (≈ 23.3 µM) and an LD50 [9] of 200 mg/kg.
CNCC1CCC(N)C(OC2C(N)CC(NC(=O)C(O)CCN)C(OC3OCC(C)(O)C(N)C3O)C2O)O1 (single isomer, unassigned) [II-2, 3"-N-demethyl-1-N-[L-(-)-α-hydroxy-γ-aminobutyryl] XK-62-2] showed an MIC (Escherichia coli T-5; [10]) of 0.4 µg/mL (≈ 0.726 µM), an MIC [1] of 0.78 µg/mL (≈ 1.42 µM) and an MIC (Proteus morganii KY 4298; [11]) of 1.56 µg/mL (≈ 2.83 µM). The MIC (Proteus rettgeri KY 4288) was 0.78 µg/mL (≈ 1.42 µM), the MIC [2] was 0.4 µg/mL (≈ 0.726 µM) and the MIC [3] was 1.56 µg/mL (≈ 2.83 µM). The MIC [4, 13] was 3.12 µg/mL (≈ 5.67 µM), the MIC [5] was 3.12 µg/mL (≈ 5.67 µM) and the MIC [6] was 0.4 µg/mL (≈ 0.726 µM). For the same molecule, the MIC [7] was 0.4 µg/mL (≈ 0.726 µM), the MIC [8] was 25 µg/mL (≈ 45.4 µM) and the LD50 [9] was 250 mg/kg.

Source: patent US4195171A, “Derivatives of an antibiotic XK-62-2 and process for the production thereof” (Abbott Laboratories, priority 1975, dated 1980)
